Reference: patent publication US20240203290A1, “VITRO MODEL DEVICE FOR CORNEA BARRIER” (CFD Research Corporation, priority 2022, published 2024)

What was measured:
Format in all cases: cell-based
[1] = system: corneal barrier of the microfluidic in vitro cornea device (epithelial, fibroblast, endothelial triculture); experiment: FSS permeability of the in vitro cornea device after trypan blue exposure; settings: trypan blue injected into TFEp channel at 3 μL/min for 4 min, incubated at 37° C. for 15 min; then FSS injected into TFEp channel
Protocol: (§1) In some embodiments, all channels of the device can be coated with human fibronectin to facilitate cellular attachment. For example, primary human corneal fibroblasts can be seeded on Day 0. Fibroblasts can be harvested, concentrated to 1×10^7 cells/mL and injected into the stromal chamber via a remote head syringe pump at 5 μL/min until cells are homogenously distributed. Devices can then be incubated at 37° C., 5% CO2 for 4 hours to allow for attachment. Media can be subsequently refreshed every 24 hours. Primary human corneal epithelial cells can be seeded into the TFEp circulation channel on Day 3. […]
(§2) Viability can be assessed on-chip as an endpoint for epithelial, fibroblast, and endothelial cells. Devices are prepared for viability quantitation by incubation with calcein AM and ethidium homodimer in PBS. After rinsing the cells with PBS, fluorescent images are taken via microscope, and the data was analyzed to determine cornea triculture viability (sec, FIG. 5A). […]
Following exposure, FSS can be injected into the TFEp channel and permeability assayed. […] Samples can be taken from cell-laden channels (individually or combined) and placed in a low volume, white walled […] plate for luminescence analysis using a plate reader. […] The increase in AK release in arbitrary luminescence units compares the toxic exposure of trypan blue to positive and negative controls. […]

[2] = system: cells of the microfluidic in vitro cornea device; experiment: Cytotoxicity by adenylate kinase release (luminescence) from cell-laden channels; settings: trypan blue exposure; compared with positive control (lysis buffer) and negative control (media only)
Protocol: as §1, §2
Following exposure, FSS can be injected into the TFEp channel and permeability assayed. […] Samples can be taken from cell-laden channels (individually or combined) and placed in a low volume, white walled […] plate for luminescence analysis using a plate reader. […] The increase in AK release in arbitrary luminescence units compares the toxic exposure of trypan blue to positive and negative controls.

[3] = system: corneal barrier of the microfluidic in vitro cornea device; experiment: Morphological observation of the chambers after trypan blue exposure; settings: trypan blue injected into TFEp channel at 3 μL/min for 4 min, incubated at 37° C. for 15 min; observed at any chamber

## Cc1cc(-c2ccc(/N=N/c3c(S(=O)(=O)O)cc4cc(S(=O)(=O)O)cc(N)c4c3O)c(C)c2)ccc1/N=N/c1c(S(=O)(=O)O)cc2cc(S(=O)(=O)O)cc(N)c2c1O [trypan blue]
[1]
  Permeability in trypan blue treated devices compared to controls: 10 fold
[2]
  Increase in adenylate kinase release: 1.5 fold
[3]
  Morphological effects of exposure: evidence of barrier degradation (e.g., cell death and detachment) and apoptosis
